Source: patent US20240034765A1, “SCG2 NEUROPEPTIDES AND USES THEREOF” (PRESIDENT AND FELLOWS OF HARVARD COLLEGE, priority 2020, published 2024)

What was measured:
CA1 neurons = assay: AAV-based activity reporter mKate2 labelling of recently activated CA1 neurons; format: in vivo, mice; details: 24 h post-KA injection
Description: First, tests were performed to determine whether either of these forms of perisomatic inhibition (by PV-expressing INs and CCK-expressing INs) are differentially regulated onto Fos-expressing neurons compared to neighboring non-Fos-expressing neurons. Mice were exposed to a series of novel environments, which robustly activated Fos in a sparse subset of CA1 PCs (see e.g., FIG. 1A, FIG. 7A-FIG. 7D). To label these Fos-expressing neurons, an adeno-associated virus (AAV)-based reporter was used that expresses the fluorescent protein mKate2 selectively in recently activated neurons (see e.g., FIG. 1B); see e.g., Fenno et al. Nat Methods 11, 763-772, (2014), the content of which is incorporated herein by reference in its entirety. Using this reporter, a significant increase was detected in the number of recently activated neurons (mKate2^+) in mice exposed to 2-3 days (see e.g., FIG. 1D) of novel environments (NE) compared to control mice housed under standard (Strd) conditions (see e.g., FIG. 1C). This 2-3d timepoint was therefore appropriate for assessing the long-lasting effects of Fos and its late-response target gene(s), which were usually activated within 1-12 hours (h) of stimulus onset (see e.g., FIG. 1D).
Intraperitoneal (i.p.) injections.
Histology. Mice were anaesthetized with 10 mg/mL ketamine and 1 mg/mL xylazine in phosphate buffered saline (PBS) via i.p. injection. […]

CA1 = assay: Cell health in CA1 24 h post-KA (Hoechst, NeuN, cleaved-caspase 3 immunostaining); format: in vivo, mice; details: within 24 h of KA injection
Description: FIG. 8A-8Q is a series of schematics, images, and graphs showing IN-to-CA1 PC paired recordings and cell health parameters in 24 h post-KA condition. FIG. 8A and FIG. 8G are schematics of the genetic strategy to label PV-INs (PV^Cre; Ai14; FIG. 8A) or CCK-INs (D1×5/6^Flp; CCK^Cre; Ai65; FIG. 8G). FIG. 8B and FIG. 8H are representative images of tdTomato fluorescence in the CA1 field. Scale: 100 μm. N=2 mice per line. FIG. 8C and FIG. 8I are bar graphs showing quantification of the fraction of (FIG. 8C) PV- or (FIG. 8I) CCK-to-CA1 PC synaptically-connected pairs from the overall number of pairs recorded in both vehicle (Veh.) and 24 h post-KA mice. In FIG. 8C, Veh., n=13/22; KA, n=19/30; in FIG. 8I, Veh., n=16/40; KA, […], where n=number of connections/total pairs. FIG. 8D and FIG. 8J are dot plots showing quantification of the maximum firing rate of (FIG. 8D) PV- or (FIG. 8J) CCK-INs from connected pairs. […] FIG. 8E and FIG. 8K are dot plots showing quantification of spike adaptation ratio of (FIG. 8E) PV- or (FIG. 8J) CCK-INs from connected pairs as in FIG. 8D and FIG. 8J, respectively. FIG. 8F and FIG. 8L are line graphs showing quantification of paired pulse ratios (PPRs) of uIPSCs at the indicated interstimulus intervals (ISI) for (FIG. 8F) PV- (Veh., n=13/6; KA, n=19/7) or (FIG. 8L) CCK- (Veh., n=16/9; KA, n=16/4) to-CA1 PC connected pairs, where n=number of pairs/number of mice. […]

[1] = tested on: hM3DGq-expressing neurons; assay: Cell-attached recording of CA1 PC in slice after bath application of CNO; format: cell-based, mice; details: cell-attached mode
specific cell types = details: cited from earlier work

Question: Which “average percentage of mKate2+ neurons over total number of DAPI cells” value (CA1 neurons) does the source give for C=C(C)[C@H]1CN[C@H](C(=O)O)[C@H]1CC(=O)O [kainic acid] here?
Answer: 96%

Question: What about the “cell death (Hoechst+, NeuN+, cleaved-caspase+ cells per 40-μm section, all layers of CA1)” value (CA1) of the same compound?
Answer: did not induce cell death

Question: For C[N+]1([O-])CCN(C2=Nc3cc(Cl)ccc3Nc3ccccc32)CC1 [CNO, clozapine N-oxide], which “firing rate of hM3DGq-expressing CA1 PC” value [1] is on record?
Answer: firing rate increases

Question: With “secretoneurin (TNEIVEEQYTPQSLATLESVFQELGKLTGPNNQ; listed as Homo sapiens) [33 aa]” as the compound, how does the “chemotaxic effects on specific cell types” value (specific cell types) read?
Answer: chemotaxic effects
